In the first test the target is AMPK. The test can be described thus: AMPK activation, enzyme-linked immunosorbent assay. It counts as biochemical. To be noted: Table 12, compounds of Table 5. In short, it runs like this: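 AMPK activation by test compounds was measured by enzyme-linked immunosorbent assay.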
A word on the EC50: it is the concentration giving half of the maximal effect. A high value points to a less potent agent. `N#Cc1ccc(CN2CCC(NC(=O)c3cccc(O[C@@H]4CCN(Cc5ccc(C(F)(F)F)cc5)C[C@H]4F)c3)CC2)cc1` [Compound 5-126, N-(1-(4-cyanobenzyl)piperidin-4-yl)-3-((3,4-trans)-3-fluoro-1-(4-(trifluoromethyl)benzyl)piperidin-4-yloxy)benzamide] had an EC50 of under 1000 nM.
The same measure, in the same setting: for `CC(C)Oc1ccc(CN2CC[C@@H](Oc3cccc(C(=O)NC4CCN(Cc5ccc(C#N)cc5)CC4)c3)[C@H](F)C2)cc1` [Compound 5-127, N-(1-(4-cyanobenzyl)piperidin-4-yl)-3-((3,4-trans)-3-fluoro-1-(4-isopropoxybenzyl)piperidin-4-yloxy)benzamide] the value was under 1000 nM; for `CS(=O)(=O)c1ccc(CN2CC[C@@H](Oc3cccc(C(=O)NC4CCN(Cc5ccc(C#N)cc5)CC4)c3)[C@H](F)C2)cc1` [Compound 5-128, N-(1-(4-cyanobenzyl)piperidin-4-yl)-3-((3,4-trans)-3-fluoro-1-(4-(methylsulfonyl)benzyl)piperidin-4-yloxy)benzamide], under 1000 nM; for `N#Cc1ccc(CN2CCC(NC(=O)c3cccc(O[C@@H]4CCN(Cc5ccc(C#N)c(F)c5)C[C@H]4F)c3)CC2)cc1` [Compound 5-129, 3-((3,4-trans)-1-(4-cyano-3-fluorobenzyl)-3-fluoropiperidin-4-yloxy)-N-(1-(4-cyanobenzyl)piperidin-4-yl)benzamide], under 1000 nM.

The test is the same for the next values; noted with them: Table 13, compounds of Table 6.
As to `CS(=O)(=O)c1ccc(CN2CCN(C(=O)c3ccc4cc(C(=O)NC5CCN(Cc6ccc(C#N)cc6)CC5)oc4c3)CC2)cc1` [Compound 6-2, N-(1-(4-cyanobenzyl)piperidin-4-yl)-6-(4-(4-(methylsulfonyl)benzyl)piperazine-1-carbonyl) benzofuran-2-carboxamide], the EC50 fell in the range of 100 to 1000 nM.
Still for that read-out and setting: for `COc1ccc(CN2CCC(NC(=O)c3cc4ccc(C(=O)N5CCN(Cc6ccc(S(C)(=O)=O)cc6)CC5)cc4o3)CC2)cc1` [Compound 6-3, N-(1-(4-methoxybenzyl)piperidin-4-yl)-6-(4-(4-(methylsulfonyl)benzyl)piperazine-1-carbonyl) benzofuran-2-carboxamide] the value was under 100 nM; for `CS(=O)(=O)c1ccc(CN2CCN(C(=O)c3ccc4cc(C(=O)NC5CCN(Cc6ccc(OC(F)(F)F)cc6)CC5)oc4c3)CC2)cc1` [Compound 6-4, 6-(4-(4-(methylsulfonyl)benzyl)piperazine-1-carbonyl)-N-(1-(4-(trifluoromethoxy)benzyl)piperidin-4-yl)benzofuran-2-carboxamide], 100 to 1000 nM; for `COc1ccc(CN2CCC(NC(=O)c3cc4ccc(C(=O)N5CCN(Cc6ccc(S(C)(=O)=O)cc6)CC5)cc4o3)CC2)cc1F` [Compound 6-5, N-(1-(3-fluoro-4-methoxybenzyl)piperidin-4-yl)-6-(4-(4-(methylsulfonyl)benzyl)piperazine-1-carbonyl) benzofuran-2-carboxamide], under 100 nM.
Turning to `CC(=O)c1ccc(Oc2ccc(NC(=O)c3cc4ccc(C(=O)N5CCN(Cc6ccc(S(C)(=O)=O)cc6)CC5)cc4o3)cn2)cc1` [Compound 6-6, N-(6-(4-acetylphenoxy)pyridin-3-yl)-6-(4-(4-(methylsulfonyl)benzyl)piperazine-1-carbonyl) benzofuran-2-carboxamide], the EC50 is under 100 nM.
Same read-out and setting: as for `CS(=O)(=O)c1ccc(CN2CCN(C(=O)c3ccc4cc(C(=O)NC5CCN(Cc6ccc(OC(F)(F)C(F)F)cc6)CC5)oc4c3)CC2)cc1` [Compound 6-7, 6-(4-(4-(methylsulfonyl)benzyl)piperazine-1-carbonyl)-N-(1-(4-(1,1,2,2-tetrafluoroethoxy)benzyl)piperidin-4-yl)benzofuran-2-carboxamide], the figure is under 100 nM; as for `CS(=O)(=O)c1ccc(CN2CCN(C(=O)c3ccc4cc(C(=O)Nc5ccc(Oc6ccc(C#N)cc6)nc5)oc4c3)CC2)cc1` [Compound 6-8, N-(6-(4-cyanophenoxy)pyridin-3-yl)-6-(4-(4-(methylsulfonyl)benzyl)piperazine-1-carbonyl) benzofuran-2-carboxamide], under 100 nM; as for `CS(=O)(=O)c1ccc(N2CCN(c3ccc4oc(C(=O)NC5CCN(Cc6ccc(C#N)cc6)CC5)cc4c3)CC2)cc1` [Compound 6-9, N-(1-(4-cyanobenzyl)piperidin-4-yl)-5-(4-(4-(methylsulfonyl)phenyl)piperazin-1-yl)benzofuran-2-carboxamide], 100 to 1000 nM.
On the same count and under the same terms, for `CS(=O)(=O)c1ccc(CN2CCN(c3ccc4oc(C(=O)NC5CCN(Cc6ccc(C#N)cc6)CC5)cc4c3)CC2)cc1` [Compound 6-10, N-(1-(4-cyanobenzyl)piperidin-4-yl)-5-(4-(4-(methylsulfonyl)benzyl)piperazin-1-yl)benzofuran-2-carboxamide] the value was under 100 nM; for `N#Cc1ccc(CN2CCC(NC(=O)c3cc4cc(C(=O)N5CCN(Cc6ccc(F)cc6)CC5)ccc4o3)CC2)cc1` [Compound 6-11, N-(1-(4-cyanobenzyl)piperidin-4-yl)-5-(4-(4-fluorobenzyl)piperazine-1-carbonyl)benzofuran-2-carboxamide], under 100 nM.
Same read-out and setting: as for `O=C(Nc1ccc(Oc2ccccc2)cc1)c1cc2cc(C(=O)N3CCN(Cc4ccc(F)cc4)CC3)ccc2o1` [Compound 6-12, 5-(4-(4-fluorobenzyl)piperazine-l-carbonyl)-N-(4-phenoxyphenyl)benzofuran-2-carboxamide], the figure is under 100 nM; as for `N#Cc1ccc(CN2CCC(NC(=O)c3cc4cc(CN5CCN(Cc6ccc(F)cc6)CC5)ccc4o3)CC2)cc1` [Compound 6-13, N-(1-(4-cyanobenzyl)piperidin-4-yl)-5-((4-(4-fluorobenzyl)piperazin-1-yl)methyl)benzofuran-2-carboxamide], under 100 nM.
`N#Cc1ccc(CN2CCC(NC(=O)c3cc4cc(CN5CCC(Oc6ccc(C#N)cc6)CC5)ccc4o3)CC2)cc1` [Compound 6-14, N-(1-(4-cyanobenzyl)piperidin-4-yl)-5-((4-(4-cyanophenoxy)piperidin-1-yl)methyl)benzofuran-2-carboxamide]: the half-maximal effective concentration (EC50) was under 100 nM.
With `O=C(NC1CCN(Cc2ccncc2)CC1)c1cc2cc(C(=O)N3CCC(C(=O)c4ccc(F)cc4)CC3)ccc2o1` [Compound 6-15, 5-(4-(4-fluorobenzoyl)piperidine-1-carbonyl)-N-(1-(pyridin-4-ylmethyl)piperidin-4-yl)benzofuran-2-carboxamide], the EC50 is 100 to 1000 nM.
Still for that read-out and setting: as for `N#Cc1ccc(CN2CCC(NC(=O)c3cc4cc(C(=O)N5CCC(C(=O)c6ccc(F)cc6)CC5)ccc4o3)CC2)cc1` [Compound 6-16, N-(1-(4-cyanobenzyl)piperidin-4-yl)-5-(4-(4-fluorobenzoyl)piperidine-1-carbonyl)benzofuran-2-carboxamide], the figure is under 100 nM.
`N#Cc1ccc(Oc2ccc(NC(=O)c3cc4cc(C(=O)N5CCC(C(=O)c6ccc(F)cc6)CC5)ccc4o3)cn2)cc1` [Compound 6-17, N-(6-(4-cyanophenoxy)pyridin-3-yl)-5-(4-(4-fluorobenzoyl)piperidine-1-carbonyl)benzofuran-2-carboxamide] returned an EC50 of under 100 nM.
Still for that read-out and setting: as for `O=C(NC1CCN(Cc2ccncc2)CC1)c1cc2cc(C(=O)N3CCC(Oc4ccc(F)cc4)CC3)ccc2o1` [Compound 6-18, 5-(4-(4-fluorophcnoxy)piperidine-1-carbonyl)-N-(1-(pyridin-4-ylmethyl)piperidin-4-yl)benzofuran-2-carboxamide], the figure is under 100 nM.

(Values after US9409884B2 (Rigel Pharmaceuticals, Inc., priority 2012, dated 2016).)
